From patent publication US8586638B2, “Parakeratosis inhibitor and skin preparation for external use” (priority 2003, dated 2013)
Several values for one entry are separate records, joined by “and”; a condition that tells them apart may be missing. Equal values may be shown once. Where a SMILES comes first, the peptide text is derived from it.

What was measured:
[1] = tested on: pores on the cheek of healthy male subjects; assay: Pore-shrinking effect on human skin by N-ethylglycine: pore surface area by replica analysis; type: in vivo; details: 3 weight % N-ethylglycine side; control 92%; area 3.34 mm by 3.34 mm; FIG. 3
Excerpt: (§1) In the pore-shrinking effect test on human skin as described in the embodiment 5, the application of N-ethylglycine was further studied about the amelioration of parakeratosis by measuring the number of nuclear cell of skin surface stratum corneum, obtained by means of a tape. Replica was used to actually measure the pore size within the area of 3.34 mm by 3.34 mm to evaluate the pore-shrinking effect.
(§2) More specifically, the skin surface stratum corneum was sampled by means of carton tape (Nichiban, Co. Ltd.) only after the application of sample, Hoechst 33342 solution dissolved in PBS to 0.1 mg/ml was then added, and after the sample was placed in a dark place for 20 minutes, the number of nuclear cells within the area of 12 mm by 34 mm by using a fluorescent microscope. For the replicas made by using silflo (Flexico, Co. Ltd.) was measured before and after the application to capture three-dimensional surface form within the same area (3.34 mm by 3.34 mm) with a confocal microscope (HD100D, Lasertech) to measure and compare the size of pores (surface area value).

[2] = tested on: pores on the cheek of healthy male subjects; assay: Effect of shrinking human pores: replica evaluation of cheek pores; type: in vivo; details: for Replica Evaluation (mean of n = 5), difference of pore size score before/after application: twice a day for a month, cheek; for effect of pore-shrinking (conclusion from Table 5): fifth embodiment
Method: An experiment of application of sample twice a day for a month on the cheek of healthy male subjects, was conducted with each group consisting of 5 individuals. 3 weight % solution of the glycine derivatives in accordance with the invention 1 (including 15 weight % of ethanol) was prepared. pH was regulated to the range between 7.0 and 7.5, by using hydrochloric acid and/or sodium hydroxide. Control was 15 weight % ethanol solution. Said 3 weight % solution was applied to one side and said control solution was applied to the other side.
Replicas were prepared prior to and after the application to observe the change of form of pores in the same spot under a three-dimensional laser scanning microscope. The size of pores was evaluated visually 13 steps from 1 to 13 (larger number indicates larger pore size), and the difference between the resulted evaluations before/after the application experiment was then calculated to study the effectiveness of each specimen.
An experiment of application of sample twice a day for a month on the cheek of healthy male subjects, was conducted with each group consisting of 5 individuals. 3 weight % solution of the glycine derivatives and the salts thereof as well as the aminosulfuric acid derivatives and the salts thereof in accordance with the invention 2 (including 15 weight % of ethanol), 2 weight % solution of ACES (including 15 weight % of ethanol), 3 weight % solution of CAPS (including 15 weight % of ethanol), and 3 weight % solution of CAPSO (including 15 weight % of ethanol) were prepared. pH was regulated to the range between 7.0 and 7.5, by using hydrochloric acid and/or sodium hydroxide. 15 weight % ethanol solution was used as control. Said sample solutions was applied to one side, and said control solution was applied to the other side.

[3] = tested on: skin roughness caused by oleic acid on the back of hairless mice; assay: Inhibitory effect on skin roughness by the application of oleic acid (TEWL value); type: in vivo, hairless mice (HR-1); parameters: ΔTEWL: unit not given here; details: for decrease of delta-TEWL value as compared to the control solution (conclusion from Table 6): hairless mice, oleic acid, seventh embodiment; for ΔTEWL: sample 3 weight %, after 10 weight % oleic acid, 3 days, four mice per group, larger = severer roughness, control 12.0
Method: To study the inhibitory effect on the skin roughness by the application of oleic acid by the glycine derivatives and the salts thereof as well as the aminosulfuric acid derivatives and the salts thereof in accordance with the invention 2, the […] (TEWL value) before and after the application was measured to compare the difference therebetween with the value of control (control solution) in order to determine the effect. The preparation of samples and the application procedure were in accordance with the embodiment 4. The TEWL value was measured by means of TEWA meter TM210 (Courage+Khazaka Inc.).
100 microliters of 10 weight % oleic acid (solvent: ethanol) was applied to the back of hairless mice (HR-1, four in each group). Thereafter, 100 microliters of sample solutions (glycine derivatives and the salts thereof as well as the aminosulfuric acid derivatives and the salts thereof) in accordance with the invention 2 were applied at each time. This procedure was repeated for 3 days. The day after the application, TEWL value of the back of mice was measured and the values were averaged. The larger delta-TEWL value indicates severer aggravation of skin roughness.

[4] = tested on: skin surface stratum corneum of human cheek; assay: Parakeratosis inhibition effect on human skin by N-ethylglycine: number of nuclear cells of skin surface stratum corneum; type: in vivo; details: 3 weight % N-ethylglycine side against control side (15 weight % ethanol); area 12 mm by 34 mm; FIG. 2
Excerpt: as §1, §2

[5] = tested on: parakeratosis and skin roughness caused by oleic acid on the back of hairless mice; assay: Parakeratosis inhibition effect test: oleic acid applied to the back of hairless mice, visual skin roughness and parakeratosis level; type: in vivo, hairless mice (HR-1); parameters: key to Evaluation Visual (mean of 4 mice), skin roughness: 0.0 = no roughness, 2.0 = control application; 0.25 steps; details: for Evaluation Parakeratosis (mean of 4 mice): range 1.0 to 3.0, higher = severer, control 2.0; for Evaluation Visual (mean of 4 mice), skin roughness: score 0.0 no roughness, 2.0 control; for effect of inhibiting parakeratosis (conclusion from Table 4): fourth embodiment
Method: A 3 weight % water solution (including 30 weight % ethanol) was prepared as the evaluation specimen of the glycine derivatives in accordance with the invention 1. The pH was regulated to the range between 7.0 to 7.5, by using hydrochloric acid and sodium hydroxide. When the solubility was low, the solution was adjusted accordingly.
100 microliters of 10 weight % oleic acid (solvent: ethanol) was applied to the back of hairless mice (HR-1, Hoshino laboratory animals). Thereafter, 100 microliters of sample solution was applied (glycine derivatives in accordance with said invention 1) at each time. This procedure was repeated for 3 days. The day after the application, the skin condition of the backs was observed by using a CCD camera to evaluate the skin roughness (stratified ablation of the skin surface stratum corneum and red spots). The skin condition was evaluated visually, with scoring the skin condition of control application to 2.0 and the skin condition of no roughness to 0.0, in a 0.25 point step in response to the skin condition. At the same time, the skin surface stratum corneum of the back of hairless mice was peeled off by using a tape for staining the nucleus with haematoxylin to observe the degrees of parakeratosis (parakeratosis level) and evaluate in 0.25 step in the range from 1.0 to 3.0. The higher evaluation points indicates the larger number of parakeratotic corneocytes count, i.e., severer parakeratosis.
The samples to be evaluated of the glycine derivatives and the salts thereof as well as the aminosulfuric acid derivatives and the salts thereof in accordance with the invention 2 were prepared mainly 3 weight % solution (including 30 weight % ethanol, excluding Hydantoic acid and ACES which include 20 weight % ethanol). pH was regulated by using hydrochloric acid or sodium hydroxide to be 7.0 to 7.5. When the solubility was low, then the solution was prepared accordingly.
100 microliters of 10 weight % oleic acid (solvent: ethanol) was applied to the back of Hairless mice (HR-1, Hoshino laboratory animals) Thereafter, 100 microliters of sample solution (glycine derivatives in accordance with the invention 2) was applied thereon at each time. This procedure was repeated for 3 days. The day after the application, the skin condition of the backs was observed by using a CCD camera to evaluate the skin roughness (stratified ablation of the skin surface stratum corneum and red spots). The skin condition was evaluated visually, with scoring the skin condition of control application to 2.0 and the skin condition of no roughness to 0.0, in a 0.25 point step in response to the skin condition. At the same time, the skin surface stratum corneum of the back of hairless mice was peeled off by using a tape for staining the nucleus with haematoxylin to observe the degrees of parakeratosis and evaluate in 0.25 step in the range from 1.0 to 3.0. The higher evaluation points indicates the larger number of parakeratotic corneocytes count, i.e., severer parakeratosis.

[6] = tested on: pores (conical portion) on the cheek of healthy adult males; assay: Effect of shrinking human pores by glycylglycine: conical portion surface area from cheek replica; type: in vivo
Method: Since we obtained a good result from glycylglycine in the embodiment 2, we conducted an application experiment of glycylglycine three times a day (0.1 milliliter each) on the cheek of 21 healthy adult males (age of 20s to 50s, average 40.4 years old) for a period of one month. 1.6% (w/w) glycylglycine solution (pH regulated to 7.0) including 15% (w/w) ethanol, and 15% (w/w) ethanol solution (control) was prepared, for applying the same to each one side cheek.
By obtaining a cheek replica (Silflo) before and after the continuous application, the surface area of conical portion was measured by a three-dimensional analysis system (Okuri et al., Japan Society of Dermatology Annual Meeting Program/Abstract, 2004, 104, pp. 601) by means of wide view confocal microscope HD100D (lasertech).
For the surface area recognized as pore portion within the replica measuring area of 3.34 mm by 3.34 mm, the conical portion surface area (mm2) and the ratio thereof before and after the application is shown in Table 3. From Table 3, The ratio among the panel that the surface area of glycylglycine applied side was decreased more than 10% when compared to the control application side (glycylglycine side was shrunk), the panel that the variation was within 10% and no noticeable change observed (no change), and the panel that the control application side was decreased more than 10% (other side was shrunk) was 13:5:3.
When averaging the surface area ratio before and after the application, the side of control solvent solution was 102%, while the side of glycylglycine was reduced to 89%. By evaluating this surface area ratio with t-analysis, we obtained p=0.019, indicating significant shrinkage of pore area in the glycylglycine applied side (see FIG. 1).

[7] = tested on: pores (conical portion) on the cheek of healthy adult males; assay: as above; type: in vivo; details: glycylglycine applied side compared with ethanol applied side
[8] = Table 5, 3.0 weight % solution (15 weight % ethanol), control 0.3
[9] = Table 4, sample 3 weight % in aqueous 30 weight % ethanol (hydantoic acid: 20 weight % ethanol)
[10] = sample 3 weight % in aqueous 30 weight % ethanol, after 10 weight % oleic acid, 3 days

CCNCC(=O)O [N-ethylglycine]
surface area of pores, average as compared to pre-application status [1]: 73%
Replica Evaluation (mean of n = 5), difference of pore size score before/after application [2, 8]: −1.4
effect of pore-shrinking (conclusion from Table 5) ([2]; human cheek): demonstrated the effect of pore-shrinking
decrease of delta-TEWL value as compared to the control solution (conclusion from Table 6) [3]: significant decrease of delta-TEWL value
ΔTEWL [3]: 9.0
number of nuclear cells of skin surface stratum corneum [4]: fewer number of nuclear cells
Evaluation Parakeratosis (mean of 4 mice) [5, 9]: 1.2
Evaluation Visual (mean of 4 mice), skin roughness [5, 9]: 1.3
effect of inhibiting parakeratosis (conclusion from Table 4) ([5]; hairless mice, oleic acid): have the effect of inhibiting parakeratosis

O=C(O)CNc1ccccc1 [N-phenylglycine]
Replica Evaluation (mean of n = 5), difference of pore size score before/after application [2, 8]: −1.0
effect of pore-shrinking (conclusion from Table 5) ([2]; human cheek): demonstrated the effect of pore-shrinking
decrease of delta-TEWL value as compared to the control solution (conclusion from Table 6) [3]: significant decrease of delta-TEWL value
ΔTEWL [3]: 7.9
Evaluation Parakeratosis (mean of 4 mice) [5, 9]: 1.2
Evaluation Visual (mean of 4 mice), skin roughness [5, 9]: 1.3
effect of inhibiting parakeratosis (conclusion from Table 4) ([5]; hairless mice, oleic acid): have the effect of inhibiting parakeratosis

NCC(=O)NCC(=O)O [glycylglycine] (H-Gly-Gly-OH)
Replica Evaluation (mean of n = 5), difference of pore size score before/after application ([2]; 3 weight % solution (15 weight % ethanol), 13 steps, larger = larger pore, control 0.2): −1.0
pore-shrinking effect (conclusion from Table 2) ([2]; human cheek, second embodiment): pore-shrinking effect was observed
average surface area ratio before and after the application ([6]; glycylglycine side, control solvent side 102%, p=0.019): 89%
conical portion surface area after application ([6]; individual panels #1-21, 1.6% (w/w) glycylglycine, 15% ethanol, three times a day, one month, area 3.34 mm by 3.34 mm): 1.2057 mm^2 and 1.3727 mm^2 and 1.5166 mm^2 and 1.4427 mm^2 and 1.2368 mm^2 and 0.6078 mm^2 and 0.3675 mm^2 and 0.4880 mm^2 and 1.1250 mm^2 and 0.5977 mm^2 and 1.3739 mm^2 and 0.2691 mm^2 and 1.2348 mm^2 and 1.2053 mm^2 and 1.0498 mm^2 and 0.3669 mm^2 and 0.6778 mm^2 and 1.0541 mm^2 and 0.5801 mm^2 and 0.6728 mm^2 and 1.3879 mm^2
conical portion surface area ratio after/before ([6]; individual panels #1-21, 1.6% (w/w) glycylglycine, three times a day, one month): 0.8948 and 0.9818 and 1.0512 and 1.0627 and 1.0535 and 0.7494 and 0.5279 and 0.7405 and 0.7878 and 0.6357 and 0.8594 and 0.4111 and 1.3932 and 0.8940 and 1.2831 and 0.5594 and 0.7676 and 0.8700 and 1.2931 and 0.7612 and 1.0131
conical portion surface area ratio after/before, mean ([6]; mean of 21 panels (S.D. 0.2597), 1.6% (w/w) glycylglycine, control mean 1.017): 0.8853
photographic evaluation of conspicuous pores [7]: ameliorated
effect of inhibiting parakeratosis (conclusion from Table 1) ([5]; hairless mice, oleic acid, first embodiment): have the effect of inhibiting parakeratosis
Evaluation Parakeratosis (mean of 4 mice) [5, 10]: 1.2
Evaluation Visual (mean of 4 mice), skin roughness [5, 10]: 1.2

NC(=O)NCC(=O)O [hydantoic acid]
Replica Evaluation (mean of n = 5), difference of pore size score before/after application [2, 8]: −0.8
effect of pore-shrinking (conclusion from Table 5) ([2]; human cheek): demonstrated the effect of pore-shrinking
decrease of delta-TEWL value as compared to the control solution (conclusion from Table 6) [3]: significant decrease of delta-TEWL value
ΔTEWL [3]: 8.0
Evaluation Parakeratosis (mean of 4 mice) [5, 9]: 1.3
Evaluation Visual (mean of 4 mice), skin roughness [5, 9]: 1.4
effect of inhibiting parakeratosis (conclusion from Table 4) ([5]; hairless mice, oleic acid): have the effect of inhibiting parakeratosis
